Laboratory results: ChEMBL document CHEMBL1145313, “Identification of potent and highly selective chiral tri-amine and tetra-amine mu opioid receptors ligands: an example of lead optimization using mixture-based libraries” (Bioorg Med Chem Lett, 2006)

Tests used:
Mu-type opioid receptor [1] = molecular target: Mu-type opioid receptor (Cavia porcellus, UniProt P97266); test: Antagonist activity against mu opioid receptor in guinea-pig ileum assay; format: functional, tissue-based
Mu-type opioid receptor [2] = molecular target: Mu-type opioid receptor (Rattus norvegicus, UniProt P33535); test: Displacement of [3H]DAMGO from mu opioid receptor in rat brain homogenate; format: tissue-based
Sequence of Mu-type opioid receptor (Rattus norvegicus, UniProt P33535) (P33535 whole entry): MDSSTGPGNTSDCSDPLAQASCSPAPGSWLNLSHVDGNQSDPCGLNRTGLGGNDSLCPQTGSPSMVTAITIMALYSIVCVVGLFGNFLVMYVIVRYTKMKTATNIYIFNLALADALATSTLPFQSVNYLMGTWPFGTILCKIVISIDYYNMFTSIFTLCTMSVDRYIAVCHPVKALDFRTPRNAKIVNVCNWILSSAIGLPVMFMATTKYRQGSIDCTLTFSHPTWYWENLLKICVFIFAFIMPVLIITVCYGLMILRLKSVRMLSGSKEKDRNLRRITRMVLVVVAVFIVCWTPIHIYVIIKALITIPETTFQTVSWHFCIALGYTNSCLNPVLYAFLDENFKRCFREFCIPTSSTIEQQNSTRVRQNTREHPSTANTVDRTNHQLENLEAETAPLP

[3] = molecular target: Delta-type opioid receptor (Homo sapiens, UniProt P41143); test: Displacement of [3H]DPDE from delta opioid receptor
Sequence of Delta-type opioid receptor (P41143 whole entry): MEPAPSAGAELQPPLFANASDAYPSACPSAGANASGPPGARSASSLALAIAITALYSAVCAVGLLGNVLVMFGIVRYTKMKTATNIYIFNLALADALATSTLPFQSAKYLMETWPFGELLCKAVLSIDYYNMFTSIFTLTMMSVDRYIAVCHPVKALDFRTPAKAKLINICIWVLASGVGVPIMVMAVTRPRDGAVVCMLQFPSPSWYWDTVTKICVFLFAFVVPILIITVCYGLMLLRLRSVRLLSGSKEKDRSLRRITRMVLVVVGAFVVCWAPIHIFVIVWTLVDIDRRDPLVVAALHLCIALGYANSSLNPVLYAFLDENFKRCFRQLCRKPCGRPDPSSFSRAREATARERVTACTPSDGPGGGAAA

[4] = molecular target: Kappa-type opioid receptor (Homo sapiens, UniProt P41145); test: Displacement of [3H]U-69593 from kappa opioid receptor
Sequence of Kappa-type opioid receptor (P41145 whole entry): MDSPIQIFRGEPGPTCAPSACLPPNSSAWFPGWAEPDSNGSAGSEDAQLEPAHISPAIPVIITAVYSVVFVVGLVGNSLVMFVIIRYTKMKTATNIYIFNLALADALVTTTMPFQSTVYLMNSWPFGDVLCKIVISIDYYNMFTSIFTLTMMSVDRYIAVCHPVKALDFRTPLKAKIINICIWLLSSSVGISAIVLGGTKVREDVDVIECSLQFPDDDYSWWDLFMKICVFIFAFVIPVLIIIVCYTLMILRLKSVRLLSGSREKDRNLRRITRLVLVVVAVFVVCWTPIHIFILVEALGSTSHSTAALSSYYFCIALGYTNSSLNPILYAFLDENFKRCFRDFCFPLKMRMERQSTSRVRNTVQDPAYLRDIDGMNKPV

[5] = molecular target: Mu-type opioid receptor (Cavia porcellus) (UniProt P97266); test: Activity at mu opioid receptor in guinea-pig ileum assay; format: functional, tissue-based; conditions: filed as antagonist
Sequence of Mu-type opioid receptor (Cavia porcellus) (P97266 whole entry): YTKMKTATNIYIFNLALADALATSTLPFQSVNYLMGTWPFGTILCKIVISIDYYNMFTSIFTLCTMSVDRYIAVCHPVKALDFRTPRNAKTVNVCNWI

Sequence of Mu-type opioid receptor (Cavia porcellus, UniProt P97266) (P97266 whole entry): as above

Row | Compound | IC50 (Mu-type opioid receptor [1]) | IC50 (Mu-type opioid receptor [2]) | IC50 [3] | IC50 [4] | Activity [5]
1 | N[C@@H](Cc1ccc(O)cc1)CN(Cc1ccccc1)[C@@H](Cc1ccc(O)cc1)CN(Cc1ccccc1)[C@@H](Cc1ccccc1)CN1CCC[C@H]1CNCc1ccccc1 | 4.46 µM |  |  |  | 
2 | CCNC[C@@H]1CCCN1C[C@H](Cc1ccccc1)N(CC)C[C@H](Cc1ccc(O)cc1)N(CC)C[C@@H](N)Cc1ccc(O)cc1 | 0.045 µM |  |  |  | 
3 | CNC[C@H](Cc1ccccc1)N(C)C[C@H](Cc1ccc(O)cc1)N(C)C[C@H](Cc1ccc(O)cc1)N(C)C |  | 0.0005 µM | 4.89 µM | 1.05 µM | Antagonist
4 | CNC[C@H](Cc1ccccc1)N(C)C[C@@H](Cc1ccc(O)cc1)N(C)C[C@@H](N)Cc1ccc(O)cc1 |  | 0.339 µM | 48.2 µM | 22.5 µM | Antagonist
5 | NC[C@@H]1CCCN1C[C@H](Cc1ccccc1)NC[C@H](Cc1ccc(O)cc1)NC[C@@H](N)Cc1ccc(O)cc1 | 0.006 µM |  |  |  | 
6 | CNC[C@H](Cc1ccccc1)N(C)C[C@H](Cc1ccc(O)cc1)N(C)C[C@@H](Cc1ccc(O)cc1)N(C)C |  | 0.662 µM | 9.05 µM | 10.5 µM | Antagonist
7 | CNC[C@@H]1CCCN1C[C@H](Cc1ccccc1)N(C)C[C@H](Cc1ccc(O)cc1)N(C)C[C@H](Cc1ccc(O)cc1)NC | 0.002 µM |  |  |  | 
8 | N[C@@H](Cc1ccc(O)cc1)CN(Cc1ccc2ccccc2c1)[C@@H](Cc1ccc(O)cc1)CN(Cc1ccc2ccccc2c1)[C@@H](Cc1ccccc1)CN1CCC[C@H]1CNCc1ccc2ccccc2c1 | 18.6 µM |  |  |  | 
9 | CNC[C@@H](Cc1ccccc1)N(C)C[C@@H](Cc1ccc(O)cc1)N(C)C[C@H](Cc1ccc(O)cc1)N(C)C |  | 0.876 µM | 17 µM | 22.4 µM | Antagonist
10 | CNC[C@@H](Cc1ccccc1)N(C)C[C@H](Cc1ccc(O)cc1)N(C)C[C@@H](N)Cc1ccc(O)cc1 |  | 0.037 µM | 8.53 µM | 1.45 µM | Antagonist
11 | CNC[C@@H](Cc1ccccc1)N(C)C[C@H](Cc1ccc(O)cc1)N(C)C[C@@H](Cc1ccc(O)cc1)N(C)C |  | 0.958 µM | 11.3 µM | 15.6 µM | Antagonist
12 | CNC[C@@H]1CCCN1C[C@H](Cc1ccccc1)N(C)C[C@H](Cc1ccc(O)cc1)N(C)C[C@H](Cc1ccc(O)cc1)N(C)C | 0.008 µM |  |  |  | 
13 | CNC[C@H](Cc1ccc(O)cc1)N(Cc1ccccc1)C[C@@H](N)Cc1ccc(O)cc1 |  | 0.882 µM | 35.6 µM | 14.4 µM | 
14 | CNC[C@@H](Cc1ccccc1)N(C)C[C@@H](Cc1ccc(O)cc1)N(C)C[C@@H](Cc1ccc(O)cc1)N(C)C |  | 0.835 µM | 4.97 µM | 8.76 µM | Antagonist
15 | CNC[C@H](Cc1ccccc1)N(C)C[C@@H](Cc1ccc(O)cc1)N(C)C[C@@H](Cc1ccc(O)cc1)N(C)C |  | 1.5 µM | 17.8 µM | 6.06 µM | Antagonist
16 | CN[C@H](CN[C@H](CN)Cc1ccc(O)cc1)Cc1ccc(O)cc1 |  | 0.111 µM | 10.9 µM | 9.67 µM | 
17 | CNC[C@@H]1CCCN1C[C@H](Cc1ccccc1)N(C)C[C@H](Cc1ccc(O)cc1)N(C)C[C@@H](N)Cc1ccc(O)cc1 | 0.013 µM |  |  |  | Antagonist
